Measurements taken from patent publication US10550111B2, “Pyrimidine urea compound containing isoxazolines and use thereof” (SHENYANG SINOCHEM AGROCHEMICALS R&D CO., LTD, priority 2014, dated 2020).

Columns and labels:
Format in all cases: in vivo
[1] = system: Abutilon theophrasti Medic.; experiment: Bioassay of herbicidal activity in greenhouse (further screening)
In short: (§1)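 Visual growth inhibition rating (0 no effect to 100 all weeds dead or not emerged) after track-sprayer application (500 L/hm²) of emulsifiable concentrate. Treatments either pre-emergence, 24 h after sowing, or post-emergence at 2–3-leaf grass and 2–4-leaf broad-leaf stage, greenhouse-grown.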

[2] = system: Echinochloa crus-galli (L.) Beauv.; experiment: as above
In short: as §1

[3] = system: Setaria glauca (L.) Beauv.; experiment: as above
In short: as §1

Zinnia elegans Jacq. = experiment: as above
In short: as §1

[4] = system: broad-leaf weeds and grass weeds; experiment: General screening of herbicidal activity in greenhouse; details: 1000 g a.i./hm^2
In short: as §1

| Compound | Growth inhibition rate, Post-emergence treatment, Abutilon theophrasti Medic. ([1]; dose 600 g a.i./hm^2) [%] | Growth inhibition rate, Pre-emergence treatment, Abutilon theophrasti Medic. ([1]; dose 600 g a.i./hm^2) [%] | Growth inhibition rate, Post-emergence treatment, Echinochloa crus-galli (L.) Beauv. ([2]; dose 600 g a.i./hm^2) [%] | Growth inhibition rate, Pre-emergence treatment, Echinochloa crus-galli (L.) Beauv. ([2]; dose 600 g a.i./hm^2) [%] | Growth inhibition rate, Post-emergence treatment, Setaria glauca (L.) Beauv. ([3]; dose 600 g a.i./hm^2) [%] | Growth inhibition rate, Pre-emergence treatment, Setaria glauca (L.) Beauv. ([3]; dose 600 g a.i./hm^2) [%] | Growth inhibition rate, Post-emergence treatment, Zinnia elegans Jacq. (Zinnia elegans Jacq.; dose 600 g a.i./hm^2) [%] | Growth inhibition rate, Pre-emergence treatment, Zinnia elegans Jacq. (Zinnia elegans Jacq.; dose 600 g a.i./hm^2) [%] | pre-emergence and post-emergence herbicidal activity against broad-leaf weeds and grass weeds [4] | Growth inhibition rate, Post-emergence treatment, Abutilon theophrasti Medic. ([1]; dose 7.5 g a.i./hm^2) [%] | Growth inhibition rate, Post-emergence treatment, Abutilon theophrasti Medic. ([1]; dose 15 g a.i./hm^2) [%] | Growth inhibition rate, Post-emergence treatment, Abutilon theophrasti Medic. ([1]; dose 30.0 g a.i./hm^2) [%] | Growth inhibition rate, Post-emergence treatment, Abutilon theophrasti Medic. ([1]; dose 60.0 g a.i./hm^2) [%] | Growth inhibition rate, Post-emergence treatment, Abutilon theophrasti Medic. ([1]; dose 120.0 g a.i./hm^2) [%] | Growth inhibition rate, Post-emergence treatment, Echinochloa crus-galli (L.) Beauv. ([2]; dose 7.5 g a.i./hm^2) [%] | Growth inhibition rate, Post-emergence treatment, Echinochloa crus-galli (L.) Beauv. ([2]; dose 15 g a.i./hm^2) [%] | Growth inhibition rate, Post-emergence treatment, Echinochloa crus-galli (L.) Beauv. ([2]; dose 30.0 g a.i./hm^2) [%] | Growth inhibition rate, Post-emergence treatment, Echinochloa crus-galli (L.) Beauv. ([2]; dose 60.0 g a.i./hm^2) [%] | Growth inhibition rate, Post-emergence treatment, Echinochloa crus-galli (L.) Beauv. ([2]; dose 120.0 g a.i./hm^2) [%] | Growth inhibition rate, Post-emergence treatment, Setaria glauca (L.) Beauv. ([3]; dose 7.5 g a.i./hm^2) [%] | further results |
| --- | --- | --- | --- | --- | --- | --- | --- | --- | --- | --- | --- | --- | --- | --- | --- | --- | --- | --- | --- | --- | --- |
| Cn1c(C(F)(F)F)cc(=O)n(-c2cc(C3=NOC(C)(C(=O)O)C3)c(Cl)cc2F)c1=O (stereo not shown) [Compound 4] | 98 | 40 | 85 | 10 | 100 | 30 | 100 | 20 | good | – | – | – | – | – | – | – | – | – | – | – | Growth inhibition rate, Post-emergence treatment, Abutilon theophrasti Medic. ([1]; dose 37.5 g a.i./hm^2): 50%; Growth inhibition rate, Post-emergence treatment, Abutilon theophrasti Medic. ([1]; dose 150 g a.i./hm^2): 98%; Growth inhibition rate, Pre-emergence treatment, Abutilon theophrasti Medic. ([1]; dose 37.5 g a.i./hm^2): 10%; Growth inhibition rate, Pre-emergence treatment, Abutilon theophrasti Medic. ([1]; dose 150 g a.i./hm^2): 15%; Growth inhibition rate, Post-emergence treatment, Echinochloa crus-galli (L.) Beauv. ([2]; dose 37.5 g a.i./hm^2): 15%; Growth inhibition rate, Post-emergence treatment, Echinochloa crus-galli (L.) Beauv. ([2]; dose 150 g a.i./hm^2): 25%; Growth inhibition rate, Pre-emergence treatment, Echinochloa crus-galli (L.) Beauv. ([2]; dose 37.5 g a.i./hm^2): 0%; Growth inhibition rate, Pre-emergence treatment, Echinochloa crus-galli (L.) Beauv. ([2]; dose 150 g a.i./hm^2): 0%; Growth inhibition rate, Post-emergence treatment, Setaria glauca (L.) Beauv. ([3]; dose 37.5 g a.i./hm^2): 20%; Growth inhibition rate, Post-emergence treatment, Setaria glauca (L.) Beauv. ([3]; dose 150 g a.i./hm^2): 70%; Growth inhibition rate, Pre-emergence treatment, Setaria glauca (L.) Beauv. ([3]; dose 37.5 g a.i./hm^2): 0%; Growth inhibition rate, Pre-emergence treatment, Setaria glauca (L.) Beauv. ([3]; dose 150 g a.i./hm^2): 5%; Growth inhibition rate, Post-emergence treatment, Zinnia elegans Jacq. (Zinnia elegans Jacq.; dose 37.5 g a.i./hm^2): 95%; Growth inhibition rate, Post-emergence treatment, Zinnia elegans Jacq. (Zinnia elegans Jacq.; dose 150 g a.i./hm^2): 100%; Growth inhibition rate, Pre-emergence treatment, Zinnia elegans Jacq. (Zinnia elegans Jacq.; dose 37.5 g a.i./hm^2): 0%; Growth inhibition rate, Pre-emergence treatment, Zinnia elegans Jacq. (Zinnia elegans Jacq.; dose 150 g a.i./hm^2): 5% |
| CC(C)COC(=O)C1(C)CC(c2cc(-n3c(=O)cc(C(F)(F)F)n(C)c3=O)c(F)cc2Cl)=NO1 (stereo not shown) [Compound 397] | – | – | – | – | – | – | – | – | good | 98 | 100 | 100 | 100 | 100 | 45 | 65 | 100 | 100 | 100 | 55 | Growth inhibition rate, Post-emergence treatment, Setaria glauca (L.) Beauv. ([3]; dose 15 g a.i./hm^2): 75%; Growth inhibition rate, Post-emergence treatment, Setaria glauca (L.) Beauv. ([3]; dose 30.0 g a.i./hm^2): 85%; Growth inhibition rate, Post-emergence treatment, Setaria glauca (L.) Beauv. ([3]; dose 60.0 g a.i./hm^2): 100%; Growth inhibition rate, Post-emergence treatment, Setaria glauca (L.) Beauv. ([3]; dose 120.0 g a.i./hm^2): 100%; Growth inhibition rate, Post-emergence treatment, Zinnia elegans Jacq. (Zinnia elegans Jacq.; dose 7.5 g a.i./hm^2): 60%; Growth inhibition rate, Post-emergence treatment, Zinnia elegans Jacq. (Zinnia elegans Jacq.; dose 15 g a.i./hm^2): 85%; Growth inhibition rate, Post-emergence treatment, Zinnia elegans Jacq. (Zinnia elegans Jacq.; dose 30.0 g a.i./hm^2): 95%; Growth inhibition rate, Post-emergence treatment, Zinnia elegans Jacq. (Zinnia elegans Jacq.; dose 60.0 g a.i./hm^2): 100%; Growth inhibition rate, Post-emergence treatment, Zinnia elegans Jacq. (Zinnia elegans Jacq.; dose 120.0 g a.i./hm^2): 100% |
| Cn1c(C(F)(F)F)cc(=O)n(-c2cc(C3=NOC(C)(C(=O)OCC4CCCO4)C3)c(Cl)cc2F)c1=O (stereo not shown) [Compound 398] | – | – | – | – | – | – | – | – | good | 98 | 98 | 100 | 100 | 100 | 65 | 75 | 95 | 100 | 100 | 55 | Growth inhibition rate, Post-emergence treatment, Setaria glauca (L.) Beauv. ([3]; dose 15 g a.i./hm^2): 95%; Growth inhibition rate, Post-emergence treatment, Setaria glauca (L.) Beauv. ([3]; dose 30.0 g a.i./hm^2): 100%; Growth inhibition rate, Post-emergence treatment, Setaria glauca (L.) Beauv. ([3]; dose 60.0 g a.i./hm^2): 100%; Growth inhibition rate, Post-emergence treatment, Setaria glauca (L.) Beauv. ([3]; dose 120.0 g a.i./hm^2): 100%; Growth inhibition rate, Post-emergence treatment, Zinnia elegans Jacq. (Zinnia elegans Jacq.; dose 7.5 g a.i./hm^2): 65%; Growth inhibition rate, Post-emergence treatment, Zinnia elegans Jacq. (Zinnia elegans Jacq.; dose 15 g a.i./hm^2): 90%; Growth inhibition rate, Post-emergence treatment, Zinnia elegans Jacq. (Zinnia elegans Jacq.; dose 30.0 g a.i./hm^2): 100%; Growth inhibition rate, Post-emergence treatment, Zinnia elegans Jacq. (Zinnia elegans Jacq.; dose 60.0 g a.i./hm^2): 100%; Growth inhibition rate, Post-emergence treatment, Zinnia elegans Jacq. (Zinnia elegans Jacq.; dose 120.0 g a.i./hm^2): 100% |
| CC(=O)OCCOC(=O)C1(C)CC(c2cc(-n3c(=O)cc(C(F)(F)F)n(C)c3=O)c(F)cc2Cl)=NO1 (stereo not shown) [Compound 17] | 100 | 90 | 100 | 95 | 100 | 85 | 100 | 90 | good | 95 | 98 | 100 | 100 | 100 | 30 | 60 | 100 | 100 | 100 | 55 | Growth inhibition rate, Post-emergence treatment, Setaria glauca (L.) Beauv. ([3]; dose 15 g a.i./hm^2): 60%; Growth inhibition rate, Post-emergence treatment, Setaria glauca (L.) Beauv. ([3]; dose 30.0 g a.i./hm^2): 100%; Growth inhibition rate, Post-emergence treatment, Setaria glauca (L.) Beauv. ([3]; dose 60.0 g a.i./hm^2): 100%; Growth inhibition rate, Post-emergence treatment, Setaria glauca (L.) Beauv. ([3]; dose 120.0 g a.i./hm^2): 100%; Growth inhibition rate, Post-emergence treatment, Zinnia elegans Jacq. (Zinnia elegans Jacq.; dose 7.5 g a.i./hm^2): 45%; Growth inhibition rate, Post-emergence treatment, Zinnia elegans Jacq. (Zinnia elegans Jacq.; dose 15 g a.i./hm^2): 55%; Growth inhibition rate, Post-emergence treatment, Zinnia elegans Jacq. (Zinnia elegans Jacq.; dose 30.0 g a.i./hm^2): 65%; Growth inhibition rate, Post-emergence treatment, Zinnia elegans Jacq. (Zinnia elegans Jacq.; dose 60.0 g a.i./hm^2): 90%; Growth inhibition rate, Post-emergence treatment, Zinnia elegans Jacq. (Zinnia elegans Jacq.; dose 120.0 g a.i./hm^2): 100% |
| C#CCOC(=O)C1(C)CC(c2cc(-n3c(=O)cc(C(F)(F)F)n(C)c3=O)ccc2Cl)=NO1 (stereo not shown) [Compound 290] | 100 | 60 | 70 | 20 | 85 | 25 | 100 | 20 | good | – | – | – | – | – | – | – | – | – | – | – | Growth inhibition rate, Post-emergence treatment, Abutilon theophrasti Medic. ([1]; dose 37.5 g a.i./hm^2): 85%; Growth inhibition rate, Post-emergence treatment, Abutilon theophrasti Medic. ([1]; dose 150 g a.i./hm^2): 98%; Growth inhibition rate, Pre-emergence treatment, Abutilon theophrasti Medic. ([1]; dose 37.5 g a.i./hm^2): 10%; Growth inhibition rate, Pre-emergence treatment, Abutilon theophrasti Medic. ([1]; dose 150 g a.i./hm^2): 35%; Growth inhibition rate, Post-emergence treatment, Echinochloa crus-galli (L.) Beauv. ([2]; dose 37.5 g a.i./hm^2): 25%; Growth inhibition rate, Post-emergence treatment, Echinochloa crus-galli (L.) Beauv. ([2]; dose 150 g a.i./hm^2): 65%; Growth inhibition rate, Pre-emergence treatment, Echinochloa crus-galli (L.) Beauv. ([2]; dose 37.5 g a.i./hm^2): 0%; Growth inhibition rate, Pre-emergence treatment, Echinochloa crus-galli (L.) Beauv. ([2]; dose 150 g a.i./hm^2): 0%; Growth inhibition rate, Post-emergence treatment, Setaria glauca (L.) Beauv. ([3]; dose 37.5 g a.i./hm^2): 40%; Growth inhibition rate, Post-emergence treatment, Setaria glauca (L.) Beauv. ([3]; dose 150 g a.i./hm^2): 75%; Growth inhibition rate, Pre-emergence treatment, Setaria glauca (L.) Beauv. ([3]; dose 37.5 g a.i./hm^2): 0%; Growth inhibition rate, Pre-emergence treatment, Setaria glauca (L.) Beauv. ([3]; dose 150 g a.i./hm^2): 10%; Growth inhibition rate, Post-emergence treatment, Zinnia elegans Jacq. (Zinnia elegans Jacq.; dose 37.5 g a.i./hm^2): 75%; Growth inhibition rate, Post-emergence treatment, Zinnia elegans Jacq. (Zinnia elegans Jacq.; dose 150 g a.i./hm^2): 100%; Growth inhibition rate, Pre-emergence treatment, Zinnia elegans Jacq. (Zinnia elegans Jacq.; dose 37.5 g a.i./hm^2): 0%; Growth inhibition rate, Pre-emergence treatment, Zinnia elegans Jacq. (Zinnia elegans Jacq.; dose 150 g a.i./hm^2): 0% |
